From ChEMBL document CHEMBL1201862, “PubChem BioAssay data set” (2004)
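In this assay, cells in 96-well plates receive the compound at five concentrations for 48 hours. Endpoints are linearly interpolated between the surrounding concentrations. GI50 = concentration required for 50% inhibition of growth.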 Calls of active or inactive are those of the source. Cut-off read from the data, not from the text of the source: active = GI50 up to about 1.1 µM and inactive = higher.

Columns and labels:
Test in all cases: NCI tumour cell line growth inhibition, 48 h
A549 = tested on: A549
CAKI-1 = tested on: CAKI-1
CCRF-CEM = tested on: CCRF-CEM
EKVX = tested on: EKVX
HOP-62 = tested on: HOP-62
HOP-92 = tested on: HOP-92
LOX IMVI = tested on: LOX IMVI
M14 = tested on: M14
MCF7 = tested on: MCF7
NCI-H522 = tested on: NCI-H522
NCI/ADR-RES = tested on: NCI/ADR-RES
OVCAR-5 = tested on: OVCAR-5
RPMI-8226 = tested on: RPMI-8226
SK-MEL-5 = tested on: SK-MEL-5
SNB-19 = tested on: SNB-19
SNB-75 = tested on: SNB-75
SW-620 = tested on: SW-620
T47D = tested on: T47D
TK-10 = tested on: TK-10
UACC-257 = tested on: UACC-257

Compound	GI50 (A549)	GI50 (CAKI-1)	GI50 (CCRF-CEM)	GI50 (EKVX)	GI50 (HOP-62)	GI50 (HOP-92)	GI50 (LOX IMVI)	GI50 (M14)	GI50 (MCF7)	GI50 (NCI-H522)	GI50 (NCI/ADR-RES)	GI50 (OVCAR-5)	GI50 (RPMI-8226)	GI50 (SK-MEL-5)	GI50 (SNB-19)	GI50 (SNB-75)	GI50 (SW-620)	GI50 (T47D)	GI50 (TK-10)	GI50 (UACC-257)
Cc1nn(C(=O)c2ccc(Cl)cc2)c2c1C(c1ccc(O)cc1)SC(=N)N2 (stereo not given)	> 10 µM (inactive)	> 10 µM (inactive)	> 10 µM (inactive)	> 10 µM (inactive)	> 10 µM (inactive)	> 10 µM (inactive)	> 10 µM (inactive)	> 10 µM (inactive)	> 10 µM (inactive)	> 10 µM (inactive)	> 10 µM (inactive)	> 10 µM (inactive)	> 10 µM (inactive)	> 10 µM (inactive)	> 10 µM (inactive)	> 10 µM (inactive)	> 10 µM (inactive)	> 10 µM (inactive)	> 10 µM (inactive)	> 10 µM (inactive)
COC1CCC(O)C(/C=C/[N+](=O)[O-])C1 (stereo not given)	10.6 µM (inactive)	16.2 µM (inactive)	2.69 µM (inactive)	4.56 µM (inactive)	5.41 µM (inactive)	12.5 µM (inactive)	1.54 µM (inactive)	2.68 µM (inactive)	2.88 µM (inactive)	10.9 µM (inactive)	15 µM (inactive)	9.1 µM (inactive)	1.55 µM (inactive)	4.06 µM (inactive)	11.5 µM (inactive)	9.68 µM (inactive)	3.33 µM (inactive)	11.3 µM (inactive)	4.72 µM (inactive)	2.01 µM (inactive)
CCCCCCCCCCCCCCCC(=O)OCC(C[As](=O)(O)O)OC(=O)CCCCCCCCCCCCCCC (stereo not given)	> 100 µM (inactive)	97.3 µM (inactive)	> 100 µM (inactive)	> 100 µM (inactive)	> 70.3 µM (inactive)	> 72.6 µM (inactive)	> 100 µM (inactive)	> 100 µM (inactive)	> 100 µM (inactive)	> 100 µM (inactive)	> 100 µM (inactive)	> 100 µM (inactive)	> 100 µM (inactive)	> 100 µM (inactive)	> 56.8 µM (inactive)	33 µM (inactive)	> 50.9 µM (inactive)	> 100 µM (inactive)	> 66.5 µM (inactive)	> 100 µM (inactive)
C[C@]12CC[C@H]3[C@@H](CCC4=CC(=O)CC[C@@H]43)[C@@H]1CC[C@@H]2OC1(O)C(=O)c2ccccc2C1=O	> 100 µM (inactive)	80.2 µM (inactive)	31.4 µM (inactive)	0.352 µM (active)	36.6 µM (inactive)	> 100 µM (inactive)	37.5 µM (inactive)	44.6 µM (inactive)	30.8 µM (inactive)	17.3 µM (inactive)	63 µM (inactive)	27.6 µM (inactive)	26.2 µM (inactive)	19.5 µM (inactive)	> 100 µM (inactive)	56.9 µM (inactive)	40.6 µM (inactive)	36.7 µM (inactive)	32.5 µM (inactive)	28.5 µM (inactive)
CC1(c2cccc(C3CCC4(C=CC3=O)OCCO4)c2)OCCO1 (stereo not given)	18.5 µM (inactive)	8.61 µM (inactive)	2.49 µM (inactive)	19.6 µM (inactive)	31 µM (inactive)	5.81 µM (inactive)	11.8 µM (inactive)	6.97 µM (inactive)	11 µM (inactive)	1.43 µM (inactive)	14.5 µM (inactive)	18.2 µM (inactive)	4.76 µM (inactive)	14.6 µM (inactive)	15.9 µM (inactive)	16.3 µM (inactive)	2.9 µM (inactive)	8.49 µM (inactive)	8.2 µM (inactive)	9.48 µM (inactive)
O=C(O)CNc1ccc(Cl)c(Cl)c1	32.1 µM (inactive)	17.9 µM (inactive)	31.6 µM (inactive)	23.1 µM (inactive)	24 µM (inactive)	15.8 µM (inactive)	35.2 µM (inactive)	27.4 µM (inactive)	13.9 µM (inactive)	16.3 µM (inactive)	28.6 µM (inactive)	40.9 µM (inactive)	21.9 µM (inactive)	26.5 µM (inactive)	34.5 µM (inactive)	26.6 µM (inactive)	23.9 µM (inactive)	15.6 µM (inactive)	20 µM (inactive)	26.7 µM (inactive)
Cc1cc(C)c2c(=N)c3ccccc3n(CCCCCCn3c4ccccc4c(=N)c4c(C)cc(C)nc43)c2n1	1.63 µM (inactive)	1.45 µM (inactive)	0.266 µM (active)	1.77 µM (inactive)	0.598 µM (active)	1.58 µM (inactive)	0.182 µM (active)	1.85 µM (inactive)	0.435 µM (active)	1.39 µM (inactive)	1.42 µM (inactive)	1.84 µM (inactive)	0.305 µM (active)	1.84 µM (inactive)	0.767 µM (active)	0.628 µM (active)	0.209 µM (active)	1.92 µM (inactive)	1.64 µM (inactive)	1.64 µM (inactive)
